In ChEMBL document CHEMBL4602719, “Discovery of Potent, Selective, and Orally Bioavailable Inhibitors of USP7 with In Vivo Antitumor Activity” (J Med Chem, 2020):

Experiments:
[1] = target: Ubiquitin carboxyl-terminal hydrolase 7 (Homo sapiens, UniProt Q93009); experiment: Inhibition of recombinant full length USP7 (unknown origin) using ubiquintin-rhodamine as substrate preincubated for 30 mins followed by substrate addition measured after 1 hr by fluorescence-based Envision plate reader assay
[2] = target: T1, Ubiquitin carboxyl-terminal hydrolase 47 (Homo sapiens, UniProt Q96K76); experiment: Inhibition of USP47 (unknown origin) by biochemical assay
T1 sequence (Q96K76 whole entry): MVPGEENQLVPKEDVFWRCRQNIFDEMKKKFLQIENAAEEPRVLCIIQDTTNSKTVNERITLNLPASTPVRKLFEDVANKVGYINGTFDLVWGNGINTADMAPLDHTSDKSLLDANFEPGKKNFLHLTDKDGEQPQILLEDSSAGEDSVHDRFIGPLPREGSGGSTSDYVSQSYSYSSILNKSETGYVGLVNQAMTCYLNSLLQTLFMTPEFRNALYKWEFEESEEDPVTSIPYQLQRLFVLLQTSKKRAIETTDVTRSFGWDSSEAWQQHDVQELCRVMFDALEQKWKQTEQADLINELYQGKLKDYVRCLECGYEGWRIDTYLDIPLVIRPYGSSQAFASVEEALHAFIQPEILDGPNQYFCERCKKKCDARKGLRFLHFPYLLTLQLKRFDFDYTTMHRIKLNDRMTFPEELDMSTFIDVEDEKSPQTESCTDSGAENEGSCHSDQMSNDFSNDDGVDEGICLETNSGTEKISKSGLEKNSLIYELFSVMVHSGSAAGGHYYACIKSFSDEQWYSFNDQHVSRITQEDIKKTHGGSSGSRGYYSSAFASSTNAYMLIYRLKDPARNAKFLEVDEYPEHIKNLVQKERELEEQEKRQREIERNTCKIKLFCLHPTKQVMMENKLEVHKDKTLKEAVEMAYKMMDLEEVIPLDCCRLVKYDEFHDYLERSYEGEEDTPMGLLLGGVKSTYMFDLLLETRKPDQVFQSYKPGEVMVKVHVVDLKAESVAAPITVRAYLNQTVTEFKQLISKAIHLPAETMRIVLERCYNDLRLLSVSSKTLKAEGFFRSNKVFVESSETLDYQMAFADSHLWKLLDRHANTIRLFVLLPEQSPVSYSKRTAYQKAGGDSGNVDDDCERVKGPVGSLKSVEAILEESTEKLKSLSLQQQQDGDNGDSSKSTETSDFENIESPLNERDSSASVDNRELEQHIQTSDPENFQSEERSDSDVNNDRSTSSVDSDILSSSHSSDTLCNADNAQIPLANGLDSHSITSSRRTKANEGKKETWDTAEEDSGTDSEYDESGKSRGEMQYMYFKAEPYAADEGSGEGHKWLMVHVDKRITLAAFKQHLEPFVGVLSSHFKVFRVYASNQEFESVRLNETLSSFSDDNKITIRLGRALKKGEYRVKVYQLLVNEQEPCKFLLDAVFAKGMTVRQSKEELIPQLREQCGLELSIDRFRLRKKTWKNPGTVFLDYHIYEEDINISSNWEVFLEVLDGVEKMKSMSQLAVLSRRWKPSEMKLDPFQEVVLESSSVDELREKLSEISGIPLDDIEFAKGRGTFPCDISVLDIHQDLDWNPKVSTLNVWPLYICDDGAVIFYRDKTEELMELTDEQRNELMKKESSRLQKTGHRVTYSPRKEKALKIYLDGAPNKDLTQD

[3] = Cytotoxicity against human RKO cells assessed as reduction in cellular ATP level measured after 5 days by CellTiter-Glo assay; format: cell-based
[4] = target: Ubiquitin carboxyl-terminal hydrolase 2 (Homo sapiens, UniProt O75604); experiment: Inhibition of human GST-tagged USP2 isoform 4 expressed in Escherichia coli assessed as cleavage of Ubiquitin-Rhodamine110-glycine to Ubiquitin and Rhodamine110-glycine using Ubiquitin-Rhodamine110-glycine as substrate by fluorescence based analysis
Sequence of Ubiquitin carboxyl-terminal hydrolase 2 (O75604 whole entry, the tested form may be a part, canonical isoform): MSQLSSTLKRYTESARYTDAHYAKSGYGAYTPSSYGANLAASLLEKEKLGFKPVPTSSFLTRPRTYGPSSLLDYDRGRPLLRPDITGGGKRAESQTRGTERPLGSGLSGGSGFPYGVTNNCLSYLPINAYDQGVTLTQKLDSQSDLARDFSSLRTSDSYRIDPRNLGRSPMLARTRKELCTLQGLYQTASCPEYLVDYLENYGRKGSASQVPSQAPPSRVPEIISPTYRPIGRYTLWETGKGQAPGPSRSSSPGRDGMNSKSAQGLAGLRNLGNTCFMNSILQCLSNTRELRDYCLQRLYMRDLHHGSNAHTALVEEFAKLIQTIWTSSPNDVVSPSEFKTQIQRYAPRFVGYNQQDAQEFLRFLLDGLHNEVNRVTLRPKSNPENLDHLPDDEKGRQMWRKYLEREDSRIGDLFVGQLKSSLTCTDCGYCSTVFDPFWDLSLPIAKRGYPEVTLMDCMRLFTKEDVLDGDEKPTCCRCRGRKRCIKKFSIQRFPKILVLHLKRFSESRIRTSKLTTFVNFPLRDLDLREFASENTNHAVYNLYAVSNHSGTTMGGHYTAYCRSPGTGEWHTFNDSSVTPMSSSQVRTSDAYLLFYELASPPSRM

[5] = target: Ubiquitin carboxyl-terminal hydrolase 6 (Homo sapiens, UniProt P35125); experiment: Inhibition of human GST-tagged USP6 CD (529 to 1406 residues) expressed in Sf21 insect cells assessed as cleavage of Ubiquitin-Rhodamine110-glycine to Ubiquitin and Rhodamine110-glycine using Ubiquitin-Rhodamine110-glycine as substrate by fluorescence based analysis
Sequence of Ubiquitin carboxyl-terminal hydrolase 6 (P35125 whole entry, the tested form may be a part): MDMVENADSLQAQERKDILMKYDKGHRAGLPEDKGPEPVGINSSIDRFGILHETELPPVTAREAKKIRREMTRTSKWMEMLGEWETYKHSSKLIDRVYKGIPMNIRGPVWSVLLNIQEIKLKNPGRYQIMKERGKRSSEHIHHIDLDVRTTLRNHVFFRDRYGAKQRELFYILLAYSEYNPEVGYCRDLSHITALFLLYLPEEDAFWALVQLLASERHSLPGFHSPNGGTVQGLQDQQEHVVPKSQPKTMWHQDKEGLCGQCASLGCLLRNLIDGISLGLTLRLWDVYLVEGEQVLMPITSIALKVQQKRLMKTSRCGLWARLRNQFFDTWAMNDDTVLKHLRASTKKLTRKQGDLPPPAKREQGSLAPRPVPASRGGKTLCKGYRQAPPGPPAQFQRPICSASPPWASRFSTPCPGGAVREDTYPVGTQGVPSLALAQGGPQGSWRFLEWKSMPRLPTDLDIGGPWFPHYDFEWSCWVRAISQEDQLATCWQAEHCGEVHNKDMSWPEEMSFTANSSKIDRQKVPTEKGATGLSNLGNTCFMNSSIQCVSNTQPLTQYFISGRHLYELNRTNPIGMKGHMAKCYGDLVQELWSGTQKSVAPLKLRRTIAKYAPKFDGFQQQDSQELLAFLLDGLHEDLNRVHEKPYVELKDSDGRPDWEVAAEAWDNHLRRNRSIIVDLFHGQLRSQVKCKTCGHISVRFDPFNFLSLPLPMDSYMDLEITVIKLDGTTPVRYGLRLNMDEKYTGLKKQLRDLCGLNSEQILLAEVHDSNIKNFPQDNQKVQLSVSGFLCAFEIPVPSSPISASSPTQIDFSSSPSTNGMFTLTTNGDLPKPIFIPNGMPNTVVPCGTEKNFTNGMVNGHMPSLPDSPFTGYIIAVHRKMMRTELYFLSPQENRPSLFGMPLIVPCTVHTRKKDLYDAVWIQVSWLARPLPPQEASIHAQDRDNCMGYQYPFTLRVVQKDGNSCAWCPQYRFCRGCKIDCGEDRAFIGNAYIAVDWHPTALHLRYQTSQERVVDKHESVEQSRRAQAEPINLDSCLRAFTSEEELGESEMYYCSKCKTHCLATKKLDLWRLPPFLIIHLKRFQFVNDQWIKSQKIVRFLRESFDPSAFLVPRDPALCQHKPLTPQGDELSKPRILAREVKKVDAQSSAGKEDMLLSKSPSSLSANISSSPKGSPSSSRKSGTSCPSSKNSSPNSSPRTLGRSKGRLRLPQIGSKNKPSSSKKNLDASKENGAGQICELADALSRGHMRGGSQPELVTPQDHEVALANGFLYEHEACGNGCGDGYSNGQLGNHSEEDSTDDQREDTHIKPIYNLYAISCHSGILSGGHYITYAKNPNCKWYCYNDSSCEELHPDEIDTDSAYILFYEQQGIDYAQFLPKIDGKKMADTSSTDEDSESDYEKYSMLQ

[6] = target: Ubiquitin carboxyl-terminal hydrolase 8 (Homo sapiens, UniProt P40818); experiment: Inhibition of human USP8 expressed in Escherichia coli assessed as cleavage of Ubiquitin-Rhodamine110-glycine to Ubiquitin and Rhodamine110-glycine using Ubiquitin-Rhodamine110-glycine as substrate by fluorescence based analysis
Sequence of Ubiquitin carboxyl-terminal hydrolase 8 (P40818 whole entry): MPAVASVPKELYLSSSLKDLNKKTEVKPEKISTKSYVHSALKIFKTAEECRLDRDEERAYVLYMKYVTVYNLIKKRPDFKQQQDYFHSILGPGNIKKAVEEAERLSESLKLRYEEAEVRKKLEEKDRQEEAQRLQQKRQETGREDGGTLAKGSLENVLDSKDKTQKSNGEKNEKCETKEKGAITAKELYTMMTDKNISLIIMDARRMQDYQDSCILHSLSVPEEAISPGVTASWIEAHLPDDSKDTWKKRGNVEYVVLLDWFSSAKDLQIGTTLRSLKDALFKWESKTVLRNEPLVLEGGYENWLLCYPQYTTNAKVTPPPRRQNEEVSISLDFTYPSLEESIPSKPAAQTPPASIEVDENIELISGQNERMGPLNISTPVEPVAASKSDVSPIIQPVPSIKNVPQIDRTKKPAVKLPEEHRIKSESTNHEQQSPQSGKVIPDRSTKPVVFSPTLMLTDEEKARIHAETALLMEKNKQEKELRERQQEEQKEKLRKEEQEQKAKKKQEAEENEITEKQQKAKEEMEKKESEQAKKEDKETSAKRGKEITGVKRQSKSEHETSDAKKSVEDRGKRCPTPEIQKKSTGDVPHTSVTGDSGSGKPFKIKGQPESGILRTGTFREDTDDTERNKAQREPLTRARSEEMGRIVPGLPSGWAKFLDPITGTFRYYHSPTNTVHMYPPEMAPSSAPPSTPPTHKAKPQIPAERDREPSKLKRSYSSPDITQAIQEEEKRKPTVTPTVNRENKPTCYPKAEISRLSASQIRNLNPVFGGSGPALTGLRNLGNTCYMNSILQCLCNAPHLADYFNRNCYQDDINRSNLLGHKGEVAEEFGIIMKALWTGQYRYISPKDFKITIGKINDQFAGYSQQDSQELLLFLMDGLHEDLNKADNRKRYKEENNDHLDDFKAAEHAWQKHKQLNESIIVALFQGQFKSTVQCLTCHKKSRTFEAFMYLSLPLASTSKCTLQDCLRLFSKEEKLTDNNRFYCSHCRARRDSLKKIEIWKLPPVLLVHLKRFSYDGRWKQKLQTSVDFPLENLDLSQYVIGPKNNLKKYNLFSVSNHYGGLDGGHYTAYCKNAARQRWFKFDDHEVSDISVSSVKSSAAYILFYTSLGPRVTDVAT

[7] = target: Ubiquitin carboxyl-terminal hydrolase 16 (Homo sapiens, UniProt Q9Y5T5); experiment: Inhibition of USP16 (unknown origin)
Sequence of Ubiquitin carboxyl-terminal hydrolase 16 (Q9Y5T5 whole entry, the tested form may be a part): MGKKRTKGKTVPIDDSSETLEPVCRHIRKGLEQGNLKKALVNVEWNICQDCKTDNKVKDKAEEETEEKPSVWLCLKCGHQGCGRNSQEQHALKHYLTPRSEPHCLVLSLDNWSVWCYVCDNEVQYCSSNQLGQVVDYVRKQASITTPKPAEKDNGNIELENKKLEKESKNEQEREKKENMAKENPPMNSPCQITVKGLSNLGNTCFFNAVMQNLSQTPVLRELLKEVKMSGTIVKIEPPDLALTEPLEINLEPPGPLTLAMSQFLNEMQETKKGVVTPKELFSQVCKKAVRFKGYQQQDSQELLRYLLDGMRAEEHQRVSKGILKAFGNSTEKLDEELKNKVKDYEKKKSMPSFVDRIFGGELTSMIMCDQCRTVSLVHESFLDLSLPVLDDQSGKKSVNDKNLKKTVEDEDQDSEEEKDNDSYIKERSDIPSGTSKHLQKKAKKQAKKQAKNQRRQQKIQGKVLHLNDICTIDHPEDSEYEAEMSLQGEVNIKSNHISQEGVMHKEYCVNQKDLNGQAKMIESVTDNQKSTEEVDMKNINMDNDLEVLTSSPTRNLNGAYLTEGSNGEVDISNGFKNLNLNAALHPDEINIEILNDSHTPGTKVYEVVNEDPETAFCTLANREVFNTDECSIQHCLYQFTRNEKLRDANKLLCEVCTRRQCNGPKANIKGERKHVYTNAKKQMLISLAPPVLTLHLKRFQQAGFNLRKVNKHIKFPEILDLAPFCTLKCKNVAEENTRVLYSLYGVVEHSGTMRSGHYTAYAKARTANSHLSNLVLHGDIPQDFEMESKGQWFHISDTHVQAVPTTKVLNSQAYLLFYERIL

[8] = target: Ubiquitin carboxyl-terminal hydrolase 19 (Homo sapiens, UniProt O94966); experiment: Inhibition of human GST-tagged USP19 (1 to 1290 residues) expressed in Escherichia coli assessed as cleavage of Ubiquitin-Rhodamine110-glycine to Ubiquitin and Rhodamine110-glycine using Ubiquitin-Rhodamine110-glycine as substrate by fluorescence based analysis
[9] = target: Ubiquitin carboxyl-terminal hydrolase 20 (Homo sapiens, UniProt Q9Y2K6); experiment: Inhibition of human GST-tagged USP20 expressed in Sf21 insect cells assessed as cleavage of Ubiquitin-Rhodamine110-glycine to Ubiquitin and Rhodamine110-glycine using Ubiquitin-Rhodamine110-glycine as substrate by fluorescence based analysis
[10] = target: Ubiquitin carboxyl-terminal hydrolase 45 (Homo sapiens, UniProt Q70EL2); experiment: Inhibition of USP45 (unknown origin)
[11] = target: Ubiquitin carboxyl-terminal hydrolase isozyme L1 (Homo sapiens, UniProt P09936); experiment: Inhibition of human 6His-tagged UCHL1 expressed in Escherichia coli assessed as cleavage of Ubiquitin-Rhodamine110-glycine to Ubiquitin and Rhodamine110-glycine using Ubiquitin-Rhodamine110-glycine as substrate by fluorescence based analysis
[12] = Inhibition of human GST-tagged OTUD5 P177S mutant expressed in Escherichia coli assessed as cleavage of Ubiquitin-Rhodamine110-glycine to Ubiquitin and Rhodamine110-glycine using Ubiquitin-Rhodamine110-glycine as substrate by fluorescence based analysis
Josephin-2 = Josephin-2 (Homo sapiens, UniProt Q8TAC2); experiment: Inhibition of human 6His-tagged JOSD2 expressed in Escherichia coli assessed as cleavage of Ubiquitin-Rhodamine110-glycine to Ubiquitin and Rhodamine110-glycine using Ubiquitin-Rhodamine110-glycine as substrate by fluorescence based analysis
Sequence of Josephin-2 (Q8TAC2 whole entry): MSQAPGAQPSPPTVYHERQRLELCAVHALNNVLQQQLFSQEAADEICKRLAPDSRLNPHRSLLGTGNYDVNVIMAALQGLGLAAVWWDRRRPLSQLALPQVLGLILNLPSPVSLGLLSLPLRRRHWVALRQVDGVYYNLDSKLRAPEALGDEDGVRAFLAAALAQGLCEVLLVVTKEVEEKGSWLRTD

[13] = target: Ubiquitin carboxyl-terminal hydrolase 14 (Homo sapiens, UniProt P54578); experiment: Inhibition of human His6-tagged USP14 expressed in Escherichia coli using Ubiquitin-Rhodamine110-glycine as substrate by fluorescence based analysis
[14] = target: Ubiquitin carboxyl-terminal hydrolase 5 (Homo sapiens, UniProt P45974); experiment: Inhibition of human 6His-tagged USP5 expressed in Escherichia coli assessed as cleavage of Ubiquitin-Rhodamine110-glycine to Ubiquitin and Rhodamine110-glycine using Ubiquitin-Rhodamine110-glycine as substrate by fluorescence based analysis
Sequence of Ubiquitin carboxyl-terminal hydrolase 5 (P45974 whole entry, the tested form may be a part): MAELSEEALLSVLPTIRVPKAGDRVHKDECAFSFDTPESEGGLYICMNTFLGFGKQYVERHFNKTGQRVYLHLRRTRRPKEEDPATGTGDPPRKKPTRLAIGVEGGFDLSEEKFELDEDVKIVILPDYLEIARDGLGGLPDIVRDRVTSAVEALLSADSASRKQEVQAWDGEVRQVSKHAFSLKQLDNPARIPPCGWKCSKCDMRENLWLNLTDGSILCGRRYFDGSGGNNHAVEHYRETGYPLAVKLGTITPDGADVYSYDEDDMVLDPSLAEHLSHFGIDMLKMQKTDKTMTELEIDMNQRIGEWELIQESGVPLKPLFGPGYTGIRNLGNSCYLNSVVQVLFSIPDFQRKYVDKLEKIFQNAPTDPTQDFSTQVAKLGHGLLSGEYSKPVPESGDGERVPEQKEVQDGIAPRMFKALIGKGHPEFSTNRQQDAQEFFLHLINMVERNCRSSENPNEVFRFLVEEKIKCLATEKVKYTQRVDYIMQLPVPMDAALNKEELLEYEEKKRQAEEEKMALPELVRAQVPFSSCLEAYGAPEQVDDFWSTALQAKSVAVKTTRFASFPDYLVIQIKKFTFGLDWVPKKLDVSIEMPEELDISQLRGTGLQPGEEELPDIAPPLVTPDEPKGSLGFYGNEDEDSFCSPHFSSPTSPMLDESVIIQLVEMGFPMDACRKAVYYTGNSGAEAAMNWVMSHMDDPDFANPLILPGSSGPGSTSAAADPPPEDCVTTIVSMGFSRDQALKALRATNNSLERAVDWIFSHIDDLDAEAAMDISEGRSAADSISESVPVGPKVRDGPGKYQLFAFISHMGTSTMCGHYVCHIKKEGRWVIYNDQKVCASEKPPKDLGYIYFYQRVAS

Homo sapiens = species: Homo sapiens; experiment: Selectivity index, ratio of IC50 for human GST-tagged VCPIP CD (25 to 561 residues) expressed in Escherichia coli assessed as cleavage of Ubiquitin-Rhodamine110-glycine to Ubiquitin and Rhodamine110-glycine using Ubiquitin-Rhodamine110-glycine as substrate by fluorescence based analysis to IC50 for inhibition of recombinant full length USP7 (unknown origin) using ubiquintin-rhodamine as substrate preincubated for 30 mins followed by substrate addition measured after 1 hr by fluorescence-based Envision plate reader assay

IC50 [1]: 0.00018 µM
IC50 [2]: > 10 µM
IC50 [4]: > 10 µM
IC50 [5]: > 10 µM
IC50 [6]: > 10 µM
IC50 [7]: > 10 µM
IC50 [8]: > 10 µM
IC50 [9]: > 10 µM
IC50 [10]: > 10 µM
IC50 [11]: > 10 µM
IC50 [12]: > 10 µM
IC50 (Josephin-2): > 10 µM
IC50 [13]: > 10 µM
IC50 [14]: > 10 µM
Ratio IC50 (Homo sapiens): > 50000
SMILES: Cc1cc(Cl)cc(-c2ccnc3cc(CN4C(=O)C5C(C4=O)C5(C)C)sc23)c1O[C@@H]1CCNC[C@@H]1C (stereo partly specified)
CC50 at 120 h [3]: 3.4 µM
